{"source": "paper PMC4330465", "about": "(Journal of Computer-Aided Molecular Design, 2014)", "note": "Counter-ions that a name gives are not always drawn."}
{"target": "T1, Recombinant Homo sapiens AChE (Homo sapiens, UniProt P22303)", "T1 construct": "made in house", "T1 sequence (P22303 32-614)": "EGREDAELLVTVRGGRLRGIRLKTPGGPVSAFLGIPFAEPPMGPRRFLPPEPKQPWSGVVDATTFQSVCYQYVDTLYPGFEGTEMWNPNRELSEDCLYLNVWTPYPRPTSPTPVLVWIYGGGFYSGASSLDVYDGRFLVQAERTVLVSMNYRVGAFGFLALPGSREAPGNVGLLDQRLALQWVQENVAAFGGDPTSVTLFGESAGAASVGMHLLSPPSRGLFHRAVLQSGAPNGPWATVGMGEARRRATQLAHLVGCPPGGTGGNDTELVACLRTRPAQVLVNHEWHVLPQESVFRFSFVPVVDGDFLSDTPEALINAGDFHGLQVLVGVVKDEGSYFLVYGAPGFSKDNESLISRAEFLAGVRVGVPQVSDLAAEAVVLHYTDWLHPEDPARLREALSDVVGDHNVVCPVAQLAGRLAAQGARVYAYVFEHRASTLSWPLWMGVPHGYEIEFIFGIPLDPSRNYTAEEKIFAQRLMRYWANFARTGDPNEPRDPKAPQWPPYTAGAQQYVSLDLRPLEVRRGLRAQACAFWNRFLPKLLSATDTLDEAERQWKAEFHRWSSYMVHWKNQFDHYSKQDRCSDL", "assay": "biochemical", "format": "biochemical", "conditions": "test sets Set1 and Set2 (Table S15), synthesized and biologically evaluated here", "procedure": "(§1) The training set of 18 compounds was experimentally evaluated for their ability to inhibit the enzymatic activity of AChE (Table 1 and Online Resource 1 for experimental details).\n(§2) Reco mbinant Homo sapiens AChE was expressed according to previously described methods [ 6,7]. The enzymatic activit y wa s measured usi ng t he Ell ma n assa y [ 8] adapted to a 96-well for mat. The final assay volume was 200 µ L a nd all measurements were performed in 0.2 mM 5,5’-D ithiobis(2-nitrobenzoic acid) and 1 mM acethylthioc holine iodide in 0.1 M phosphate buffer pH 8.0. All measurements were perfor med in triplicates and the data was fitted to a (log)i nhibit or vs. response four parameters equation using GraphPad Prism (5.0). T he obtained IC50-values were recalculated to pIC50 according to pIC50=-log(IC50) in molar (M) concentration.", "units": {"IC50": "µM"}}
{"molecule": "Cc1cc(C)c(OCC(=O)Nc2ccc(CN3CCCCC3)cc2)c(Cl)c1", "note": "[compound 38]", "IC50": 1.3}
{"molecule": "O=C(NCC[n+]1ccsc1)c1cc2cc([N+](=O)[O-])ccc2s1", "note": "[compound 31]", "IC50": 2.6}
{"molecule": "O=C(CCc1ccc(Cl)cc1Cl)Nc1ccc(CN2CCCCC2)cc1", "note": "[compound 42]", "IC50": 0.7}
{"molecule": "Cc1ccc(C(=O)NCCC[n+]2ccccc2)cc1[N+](=O)[O-]", "note": "[compound 27]", "IC50": 4.9}
{"molecule": "Cc1ccc(C(=O)NCCCN(C)C)cc1[N+](=O)[O-]", "note": "[compound 29]", "IC50": 19}
{"molecule": "O=[N+]([O-])c1ccccc1S(=O)(=O)NCC[n+]1ccsc1", "note": "[compound 30]", "IC50": 12}
{"molecule": "O=C(COc1ccccc1Cl)Nc1ccc(CN2CCCCC2)cc1", "note": "[compound 40]", "IC50": 0.6}
{"molecule": "O=C(COc1ccc(Cl)cc1)Nc1ccc(CN2CCCCC2)cc1", "note": "[compound 37]", "IC50": 0.6}
{"molecule": "Cc1ccc(C(=O)NCC[n+]2ccccc2)cc1[N+](=O)[O-]", "note": "[compound 28]", "IC50": 10}
{"molecule": "O=C(COc1ccccc1)Nc1ccc(CN2CCCCC2)cc1", "note": "[compound 39]", "IC50": 1.3}
{"molecule": "CCN(CC)Cc1ccc(NC(=O)COc2cc(C)ccc2C)cc1", "note": "[compound 41]", "IC50": 8.1}
{"target": "T1, Recombinant Homo sapiens AChE", "assay": "biochemical", "format": "biochemical", "conditions": "training set; triplicates; pH 8.0", "procedure": "as §1, §2", "units": {"IC50": "µM"}}
{"molecule": "O=C(NCCN1CCNCC1)c1sc2ccccc2c1Cl", "note": "[compound 16]", "IC50": 109}
{"molecule": "CCN(CC)CCCNC(=O)c1ccc(-c2ccc(Cl)cc2)o1", "note": "[compound 12, 5-(4-Chloro-phenyl)-furan-2-N-[3-(diethylamino)-propyl]-carboxamide hydrochloride]", "IC50": 78}
{"molecule": "COc1ccc(N2Cc3ccccc3C2=O)cc1S(=O)(=O)NCCN1CCOCC1", "note": "[compound 7]", "IC50": 4250}
{"molecule": "O=S(=O)(Cc1ccc(Cl)cc1)NCCCN1CCCCC1", "note": "[compound 2]", "IC50": 445}
{"molecule": "COc1ccc(N2Cc3ccccc3C2=O)cc1S(=O)(=O)NCCCN(C)C", "note": "[compound 8]", "IC50": 12}
{"molecule": "Cc1ccc(S(=O)(=O)NCCCN2CCCCC2)cc1[N+](=O)[O-]", "note": "[compound 5]", "IC50": 101}
{"molecule": "CN(C)CCCNC(=O)c1sc2ccccc2c1Cl", "note": "[compound 9, 3-Chloro-benzo[b]thiophene-2-N-(3-dimethylamino-propyl)-carboxamide hydrochlor ide]", "IC50": 67.7}
{"molecule": "CCN(CC)CCCNC(=O)c1ccc(C)c([N+](=O)[O-])c1", "note": "[compound 6]", "IC50": 12.8}
{"molecule": "O=C(Cc1ccc(Cl)cc1)NCC[n+]1ccccc1", "note": "[compound 13, 1-(2-[2-(4 -Chloro-phenyl)-acetylamino]-ethyl)-pyridinium bromide]", "IC50": 25}
{"molecule": "Cc1ccc(S(=O)(=O)NCCN(C)C)cc1[N+](=O)[O-]", "note": "[compound 4]", "IC50": 69.5}
{"molecule": "O=S(=O)(Cc1ccc(C(F)(F)F)cc1)NCCC[n+]1ccccc1", "note": "[compound 15]", "IC50": 22.2}
{"molecule": "O=S(=O)(Cc1ccc(C(F)(F)F)cc1)NCCCN1CCNCC1", "note": "[compound 17]", "IC50": 4200}
{"molecule": "O=C(NCCCN1CCNCC1)c1ccc(-c2ccc(Cl)cc2)o1", "note": "[compound 18]", "IC50": 136}
{"molecule": "O=C(NCCC[n+]1ccccc1)c1sc2ccccc2c1Cl", "note": "[compound 14, 1-(3-[(3-Chloro-benzo[b]thiophen-2-carbonyl)-amino] -propyl)-pyridinium chloride]", "IC50": 6.6}
{"molecule": "O=C(Cc1ccc(Cl)cc1)NCCCN1CCOCC1", "note": "[compound 3]", "IC50": "> 1000"}
{"molecule": "CCN(CC)CCNS(=O)(=O)Cc1ccc(Cl)cc1", "note": "[compound 1]", "IC50": 13}
{"molecule": "O=C(Cc1ccc(C(F)(F)F)cc1)NCCN1CCCCC1", "note": "[compound 10, N-[2-(Piperidin-1-yl)-ethyl] -2-(4-trifluoromethyl-phenyl) -acetamide]", "IC50": 323}
{"molecule": "O=C(NCCN1CCOCC1)c1ccc(-c2ccc(Cl)cc2)o1", "note": "[compound 11, 5-(4-Chlorophenyl)-N-(2-morpholinoethyl)furan-2-carboxamide]", "IC50": 2430}
{"target": "T1, Recombinant Homo sapiens AChE", "assay": "not given", "conditions": "test set Set3 (Table S15); cited from earlier work", "units": {"IC50": "µM"}}
{"molecule": "CCN(CC)CCNS(=O)(=O)c1cccc(OC)c1", "note": "[compound 60]", "IC50": 10}
